According to patent US20210379146A1, “METHOD TO RESTORE OR IMPROVE COGNITIVE FUNCTIONS” (INSERM (INSTITUT NATIONAL DE LA SANTÉ ET DE LA RECHERCHE …, priority 2018, published 2021):

Assays:
C57BL/6J male mice [1] = assay: Novel object recognition (NOR); assay type: in vivo, mouse; conditions: for memory performance in testing phase of NOR: 3 month-old WT mice, single acute hippocampal stereotactic injection 12 hours before training phase
C57BL/6J male mice [2] = assay: Contextual fear conditioning (CFC); assay type: in vivo, mouse; conditions: for memory performance in testing phase of CFC: 3 month-old WT mice, single acute hippocampal stereotactic injection 12 hours before training phase
[3] = tested on: hippocampal autophagy (LC3-II); conditions: 16 month-old mice, 12 hours after hippocampal stereotactic injection, 1 μg/hemisphere, compared with 3 month-old mice
C57BL/6J male mice [4] = conditions: 16 month-old mice, local hippocampal stereotactic injection 1 μg/hemisphere, versus 3 month-old mice
[5] = 16 month-old mice, 14 days of daily intraperitoneal injections, 450 μg
[6] = 16 month-old mice, local hippocampal stereotactic injection 1 μg/hemisphere, versus 3 month-old mice

## YGRKKRRQRRRGGTNVFNATFEIWHDGEFGT [TAT-Beclin 1]
C57BL/6J male mice [1]
  memory performance in testing phase of NOR: enhanced learning/memory capacities
C57BL/6J male mice [1]; [5]
  age-related memory decline, NOR: counteract normal age-related memory decline
C57BL/6J male mice [1]; [6]
  age-related memory deficits, NOR: rescue age-related memory deficits
C57BL/6J male mice [2]
  memory performance in testing phase of CFC: enhanced learning/memory capacities
C57BL/6J male mice [2]; [5]
  age-related memory decline, CFC: counteract normal age-related memory decline
C57BL/6J male mice [2]; [6]
  age-related memory deficits, CFC: rescue age-related memory deficits
[3]
  LC3-II levels (Western blot): restored LC3-II levels in old (16 months) to the level of young (3 months) mice
C57BL/6J male mice [4]
  age-related memory deficits, OLM: rescue age-related memory deficits

## CC(=O)N[C@@H](CC(C)C)C(=O)N[C@@H](CC(C)C)C(=O)N[C@H](C=O)CCCNC(=N)N [leupeptin, Leupeptin, reference compound]
C57BL/6J male mice [1]
  memory performance in testing phase of NOR: significant decrease in memory performance
C57BL/6J male mice [2]
  memory performance in testing phase of CFC: significant decrease in memory performance

## CCN(CC)CCCC(C)Nc1ccnc2cc(Cl)ccc12 (centres unmarked) [chloroquine, Chloroquine, reference compound]
C57BL/6J male mice [1]
  memory performance in testing phase of NOR: significant decrease in memory performance
C57BL/6J male mice [2]
  memory performance in testing phase of CFC: significant decrease in memory performance

## Fc1ccc(CNc2ncnc3ccc(F)cc23)cc1 [Spautin-1, reference compound]
C57BL/6J male mice [1]
  memory performance in testing phase of NOR: significant decrease in memory performance
C57BL/6J male mice [2]
  memory performance in testing phase of CFC: significant decrease in memory performance
